Experimental data reported in patent publication US6071947A, “Indolyl-pyrrolydenemethylpyrrole derivatives and process for their preparation” (Pharmacia & Upjohn S.p.A., priority 1997, dated 2000).
Where a name gives a salt, the structure may show the parent alone. Read-outs that look alike come from different tables or passages of the source.

Columns and labels:
[1] = Test n° 5: in vivo bioavailability evaluation after oral administration; details: rat, 10 mg/kg
Procedure: In Vivo Bioavailability Evaluation
Aim of the study is to determine the pharmacokinetics and the oral bioavailability of the instant compounds in rats.
Species/strain/sex: rat/Lewis/male
No. formulations: 1 oral; 1 intravenous
No. animals/formulation: 3+2 controls (+an ulterior rat treated with the iv formulation); total 9
Dosages: iv: 1 mg salt/kg; oral: 10 mg salt/kg
Vehicles: iv: a solution at the conc. of 5 mg/ml in PEG 400/Tween 80 (6:1 v:v) was prepared, then diluted with dextrose at the final concentration of 0.5 mg/ml; oral: a solution at the concentration of 5 mg/ml in Cremophor ELP/EtOH abs (6.5:3.5 v:v) was prepared, then diluted with saline at the final concentration of 1 mg/ml
Experimental: Three cannulated rats/formulation were treated. One rat/formulation was only treated with the vehicle, as basal sample. The intravenous administration was given into the caudal vein as bolus; the oral administration by gastric gavage as solution. […] Plasma was immediately obtained by centrifugation (10000 rpm for 3 min) and stored in labelled tubes at -30° C. till analysis.
Analytical assay: the extraction of the compounds was performed by protein precipitation by adding 100 mcl of acetonitrile to 25 mcl of plasma. The concentrations of the compounds (as free bases) in plasma were determined by LC-MS method. Column: APEX CN RP 5 mc, 10×4 mm (Jones chromatography); mobil phase: 70% acetonitrile/30% 1 mM ammonium formate +0.01% triethylamine adjusted to pH 2.0 with formic acid; flow rate: 1 ml/min; injection volume: 10 mcL; oven temperature: 45° C.; MS detection by APCI using MRM positive ion; MRM transition: 330 m/z>239 m/z, retention time: 1.4 min; LLOQ: 5.03 ng/ml; ULOQ: 10060 ng/ml.

[2] = system: Delayed-Type Hypersensitivity; assay: Test n° 4: in vivo DTH (Delayed-Type Hypersensitivity) assay, SRBC-induced footpad thickness increase; design: species or system female C57 B1/6 mice; details: Mus musculus, read-out: DTH ED30 os
Procedure: Comparative in Vivo Activity Evaluation by DTH Assay
The immunosuppressive activity of the compounds of the invention was evaluated in vivo by DTH (Delayed-Type Hypersensitivity) assay. According to the test, sheep red blood cells (SRBC) (1×10^5 cells) suspended in 500 mcL saline, were injected i.v. into the tail vein of female C57 B1/6 mice (8-9 week old). Five days later 1×10^8 SRBC suspended in 50 mcL saline were injected into the left hind footpad. The increase in footpad thickness was measured with a dial micrometer 24 h after challenge. The test compounds were given daily for six days at different doses starting on the day of priming.

[3] = system: Th2 murine cells D10-G4.1 (ATCC TIB 224); assay: Inhibition of IL-2 proliferation induced activity (D10 cells, 3H-TdR uptake); assay type: cell-based
Procedure: Inhibition of IL-2 Proliferation Induced Activity
The Th2 murine cells D10-G4.1 (ATCC TIB 224) are IL-2 dependent for their growth. They are cultured in complete RPMI 1640 medium enriched with rhIL-2 (6 ng/ml) and ConA (6 ng/ml).
For testing the inhibitory effects of the compounds of the invention on IL-2 activity, D 10 cells are washed twice with complete medium, resuspended at 10^5 cells/ml in the same medium and triplicately distributed (10^4 cells/well) in flat bottomed 96 well plates. […] and […] at different concentrations are simultaneously added to the cells. The cultures are then incubated at 37° C. in a humidified 5% CO2 incubator for 48 h, the last 18 h in the presence of 0.2 μCi of ^3 H-TdR.
Uptake of 3H-TdR in the cells (cpm) is taken as a measure of cell proliferation.

[4] = oral (os), daily for six days, dose able to reduce by 30% the footpad thickness increase compared to controls, 24 h after challenge, mice

Row | Structure (SMILES) | bioavailability ([1]; in vivo) [%] | ED30 ([2]; 24 h) [mg/kg] | bioavailability ([1]; plasma) [%] | 3HTdR uptake ([3]; 10 ng/ml, mean cpm from triplicate wells (SE), vehicle 61231 (1193)) | 3HTdR uptake ([3]; 30 ng/ml, mean cpm from triplicate wells (SE), vehicle 61231 (1193)) | 3HTdR uptake ([3]; 0.1 ug/mL) | inhibition at 0.01 µg/mL ([3]; Mus musculus, 10 ng/ml, 48 h, read-out: % inhibition vs vehicle) [%] | inhibition at 0.03 µg/mL ([3]; Mus musculus, 30 ng/ml, 48 h, read-out: % inhibition vs vehicle) [%] | inhibition at 0.1 µg/mL ([3]; Mus musculus, 100 ng/ml, 48 h, read-out: % inhibition vs vehicle) [%] | ED30 [2, 4] [mg/kg]
1 | CCCCCCCCCCCC1=NC(=Cc2[nH]c(-c3cc4ccccc4[nH]3)cc2OC)C=C1.Cl [PNU 166823, 2-(1H-indol-2-yl)-4-methoxy-5-[(5-undecyl-2H-pyrrol-2-ylidene)methyl]-1H-pyrrole, hydrochloride] | 5 | 8.8 | – | – | – | – | – | – | – | –
2 | CCCCCC1=NC(=Cc2[nH]c(-c3cc4ccccc4[nH]3)cc2OC)C=C1.Cl [PNU 190192, 2-(1H-indol-2-yl)-4-methoxy-5-[(5-pentyl-2H-pyrrol-2-ylidene)methyl]-1H-pyrrole, hydrochloride] | – | – | 38 | 57325 (1280) cpm | 29681 (1528) cpm | 1388 (62) cpm | 6 | 52 | 98 | 7.1
3 | COc1cc(-c2cc3ccccc3[nH]2)[nH]c1C=C1C=CC(C)=N1.Cl [PNU 190364, 2-(1H-indol-2-yl)-4-methoxy-5-[(5-methyl-2H-pyrrol-2-ylidene)methyl]-1H-pyrrole, hydrochloride] | – | – | 82 | – | – | – | – | – | – | 6.6
4 | CC1=NC(=Cc2[nH]c(-c3cc4ccccc4[nH]3)cc2OCc2ccccc2)C=C1 [PNU 190537, 2-(1H-indol-2-yl)-4-benzyloxy-5-[(5-methyl-2H-pyrrol-2-ylidene)methyl]-1H-pyrrole, hydrochloride] | – | – | 20 | – | – | – | – | – | – | 11.9
